This passage reports IC50 results from patent US4558058A, “Substituted 1,4-dihydropyridines and their use as medicaments” (Cassella Aktiengesellschaft, priority 1982, dated 1985).

For this assay, the system named is helical strips of pulmonary artery of guinea pigs. Briefly: calcium-antagonistic action: inhibition of CaCl2-induced contraction of potassium-depolarised helical strips of pulmonary artery. It counts as cell-based. The conditions noted are these: guinea pig pulmonary artery strips, calcium-free Tyrode's solution, 40 mmol potassium, 0.5 mmol CaCl2, mean value from 4 to 6 strips, read-out: IC50 (concentration of the test substance which inhibits contraction by 50%). The procedure: This entailed helical strips of pulmonary artery of guinea pigs being equilibrated in calcium-free Tyrode's solution and depolarised with 40 mmol of potassium. Addition of 0.5 mmol of CaCl2 then initiates contraction. The relaxant action of the test substance is determined by cumulative addition of concentrations increasing in steps of 1/2 log 10.

Read-outs that look alike come from different tables or passages of the source.

“2-Methylethyl 1,4-dihydro-2,6-dimethyl-4-(3-cyanophenyl)-5-(3-methyl-1,2,4-oxadiazol-5-yl)pyridine-3-carboxylate [Example 1t]”: the IC50 was 1.5 nM.

Regarding `CC1=C(C(=O)OCC(C)C)C(c2cccc([N+](=O)[O-])c2)C(c2nnco2)=C(C)N1` (stereo not shown) [Example 1z, Isobutyl 1,4-dihydro-2,6-dimethyl-4-(3-nitrophenyl)-5-(1,3,4-oxadiazol-2-yl)pyridine-3-carboxylate], the IC50 (Cavia porcellus) was 0.15 nM. Still for that read-out and setting: the same measure for `COC(=O)C1=C(C)NC(C)=C(c2nnco2)C1c1cccc(Cl)c1Cl` (stereo not shown) [Example 2b, Methyl 1,4-dihydro-2,6-dimethyl-4-(2,3-dichlorophenyl)-5-(1,3,4-oxadiazol-2-yl)pyridine-3-carboxylate]: 0.4 nM; for `COC(=O)C1=C(C)NC(C)=C(c2nnc(C)o2)C1c1cccc(Cl)c1Cl` (stereo not shown) [Example 2e, Methyl 1,4-dihydro-2,6-dimethyl-4-(2,3-dichlorophenyl)-5-(5-methyl-1,3,4-oxadiazol-2-yl)pyridine-3-carboxylate]: 1.6 nM. Same read-out and setting: the same measure for `CC1=C(C(=O)OC(C)C)C(c2cccc([N+](=O)[O-])c2)C(c2nnco2)=C(C)N1` (stereo not shown) [Example 2n, Isopropyl 1,4-dihydro-2,6-dimethyl-4-(3-nitrophenyl)-5-(1,3,4-oxadiazol-2-yl)pyridine-3-carboxylate]: 0.09 nM; for `COCCOC(=O)C1=C(C)NC(C)=C(c2nnco2)C1c1ccccc1[N+](=O)[O-]` (stereo not shown) [Example 2o, 2-Methoxyethyl 1,4-dihydro-2,6-dimethyl-4-(2-nitrophenyl)-5-(1,3,4-oxadiazol-2-yl)pyridine-3-carboxylate]: 0.3 nM. Still for that read-out and setting: the same measure for `COC(=O)C1=C(C)NC(C)=C(c2nc(Cc3ccccc3)no2)C1c1cccc([N+](=O)[O-])c1` (stereo not shown) [Example 2r, Methyl 1,4-dihydro-2,6-dimethyl-4-(3-nitrophenyl)-5-(3-benzyl-1,2,4-oxadiazol-5-yl)pyridine-3-carboxylate]: 0.5 nM. On to `COC(=O)C1=C(C)NC(C)=C(c2nc(Cc3ccccc3)no2)C1c1cccc(Cl)c1Cl` (stereo not shown) [Example 2s, Methyl 1,4-dihydro-2,6-dimethyl-4-(2,3-dichlorophenyl)-5-(3-benzyl-1,2,4-oxadiazol-5-yl)pyridine-3-carboxylate], for which the IC50 (Cavia porcellus) is 0.7 nM. With `COC(=O)C1=C(C)NC(C)=C(c2nc(Cc3ccccc3)no2)C1c1ccccc1[N+](=O)[O-]` (stereo not shown) [Example 2t, Methyl 1,4-dihydro-2,6-dimethyl-4-(2-nitrophenyl)-5-(3-benzyl-1,2,4-oxadiazol-5-yl)pyridine-3-carboxylate], the IC50 (Cavia porcellus) amounted to 1 nM. With `COCCOC(=O)C1=C(C)NC(C)=C(c2nc(Cc3ccccc3)no2)C1c1cccc([N+](=O)[O-])c1` (stereo not shown) [Example 2v, 2-Methoxyethyl 1,4-dihydro-2,6-dimethyl-4-(3-nitrophenyl)-5-(3-benzyl-1,2,4-oxadiazol-5-yl)pyridine-3-carboxylate], for the setting “Cavia porcellus”, the IC50 was found to be 0.7 nM. Same read-out and setting: next, `COC(=O)C1=C(C)NC(C)=C(c2nc(Cc3ccccc3)no2)C1c1ccccc1Cl` (stereo not shown) [Example 2w, Methyl 1,4-dihydro-2,6-dimethyl-4-(2-chlorophenyl)-5-(3-benzyl-1,2,4-oxadiazol-5-yl)pyridine-3-carboxylate]: 2.5 nM; `CC1=C(C(=O)OCCOC(C)C)C(c2cccc(Cl)c2Cl)C(c2nnc(C)o2)=C(C)N1` (stereo not shown) [Example 2z1, 2-Isopropoxyethyl 1,4-dihydro-2,6-dimethyl-4-(2,3-dichlorophenyl)-5-(2-methyl-1,3,4-oxadiazol-5-yl)pyridine-3-carboxylate]: 1.5 nM.

For `CC1=C(C(=O)OC(C)C)C(c2cccc(Cl)c2Cl)C(c2nnco2)=C(C)N1` (stereo not shown) [Example 2z2, Isopropyl 1,4-dihydro-2,6-dimethyl-4-(2,3-dichlorophenyl)-5-(1,3,4-oxadiazol-2-yl)pyridine-3-carboxylate], the IC50 (Cavia porcellus) was found to be 0.2 nM. `CC1=C(c2nnco2)C(c2cccc([N+](=O)[O-])c2)C(c2nnco2)=C(C)N1` [Example 3a, 1,4-Dihydro-2,6-dimethyl-3,5-di(1,3,4-oxadiazol-2-yl)-4-(3-nitrophenyl)pyridine]: the IC50 (Cavia porcellus) was 2 nM. Take `CCc1noc(C2=C(C)NC(C)=C(C(=O)OCCOC)C2c2cccc(Cl)c2Cl)n1` (stereo not shown) [Example 4b, 2-Methoxyethyl 1,4-dihydro-2,6-dimethyl-4-(2,3-dichlorophenyl)-5-(3-ethyl-1,2,4-oxadiazol-5-yl)pyridine-3-carboxylate]: the IC50 (Cavia porcellus) was 1.8 nM.

Take `CCc1noc(C2=C(C)NC(C)=C(C(=O)OC)C2c2cccc(Cl)c2Cl)n1` (stereo not shown) [Example 4c, Methyl 1,4-dihydro-2,6-dimethyl-4-(2,3-dichlorophenyl)-5-(3-ethyl-1,2,4-oxadiazol-5-yl)pyridine-3-carboxylate]: the IC50 (Cavia porcellus) was 2.4 nM. Take `CCc1nnc(C2=C(C)NC(C)=C(C(=O)OCCOC)C2c2cccc([N+](=O)[O-])c2)o1` (stereo not shown) [Example 4k, 2-Methoxyethyl 1,4-dihydro-2,6-dimethyl-4-(3-nitrophenyl)-5-(2-ethyl-1,3,4-oxadiazol-5-yl)pyridine-3-carboxylate]: the IC50 (Cavia porcellus) was found to be 1 nM. On the same count and under the same terms, the same measure for `CCc1nnc(C2=C(C)NC(C)=C(C(=O)OCCOC)C2c2cccc(Cl)c2Cl)o1` (stereo not shown) [Example 4m, 2-Methoxyethyl 1,4-dihydro-2,6-dimethyl-4-(2,3-dichlorophenyl)-5-(2-ethyl-1,3,4-oxadiazol-5-yl)pyridine-3-carboxylate]: 1.5 nM; for `CCOC(=O)c1sc(C2=C(C)NC(C)=C(C(=O)OCCOC)C2c2cccc([N+](=O)[O-])c2)nc1C` (stereo not shown) [Example 5b, 2-Methoxyethyl 1,4-dihydro-2,6-dimethyl-4-(3-nitrophenyl)-5-(4-methyl-5-ethoxycarbonyl-2-thiazolyl)pyridine-3-carboxylate]: 1.6 nM.
